Results: patent US10246448B2, “4-hydroxy-2-phenyl-1,3-thiazol-5-yl methanone derivatives as TRPM8 antagonists” (DOMPÉ FARMACEUTICI S.P.A., priority 2015, dated 2019)

Legend:
[1] = target: T1, human TRPM8 (Homo sapiens, UniProt Q7Z2W7); test: In vitro TRPM8 assay: intracellular calcium levels, Ca2+ sensitive fluorescent dye (FLIPR), agonist Icilin or Cooling Agent 10; format: cell-based; design: expressed in transfected cells; details: HEK-293 cells stably expressing human TRPM8
Procedure: The TRPM8 antagonistic activity of all 26 compounds was determined by measuring changes in intracellular calcium levels using a Ca^+2 sensitive fluorescent dye. The experiments were performed using HEK-293 cells stably expressing the human TRPM8. Cells were seeded 10000 cells/well in 384 plates coated by Poly-D-Lysine MATRIX black/clear bottom (Thermo Scientific, Waltham, Mass. USA) in complete medium and grown overnight at 37° C., 5% CO2. 24 h after seeding, cell culture media was removed, cells were washed with Tyrode's assay buffer and then loaded with the fluorescent Ca^+2 indicator Fluo-4 NW dye (Molecular Probes, Life Technologies, Paisley, UK) supplemented with water-soluble Probenecid (Molecular Probes). Dye loaded cell plates were incubated for 1 h at room temperature. The compounds or vehicle were added and the kinetic response was monitored by a fluorimetric imaging plate ([…]; Molecular Devices, Sunnyvale, Calif., USA) over a period of five minutes (300 seconds). A second injection 5 minutes later of the reference agonist Cooling Agent 10 or Icilin at EC80 concentration was performed. The signal of the emitted fluorescence was recorded during additional three minutes. Data were analyzed by Spotfire DecisionSite version 9.1.1. The bioactivity exerted by the compounds or vehicle was expressed as a percent inhibition and IC50 values were then calculated.

[2] = target: T1, human TRPM8; test: In vitro cold stimulation assay
Procedure: The TRPM8 antagonisticic activity of all 26 compounds was determined in an in vitro cold stimulation assay.
3-4 days after seeding (˜80% confluent cells), the medium was removed and cells were loaded by a solution of Screen Quest™ Fluo-8 NW dye (ABS Bioquest, Sunnyvale, Calif., USA) in the dark. Dye-loaded cell flasks were incubated for 45 minutes at room temperature in the dark and the Fluo-8 NW solution was then removed and cells were seeded in the 96 Assay Plates (MicroAmp™ Optical 96-Well Reaction Plates; Applied Biosystems, Life technologies) at 100,000 cells/'well (20 μl/well). […] All data point determinations were performed in duplicate before a mean value was calculated, including error bars representing the standard error of the mean.

[3] = Metabolic stability in rat microsomes, Phase II assay; format: in vitro ADME; details: pH 7.4; rat liver microsomes 0.5 mg/mL, Alamethicin activated, UDPGA, compound 1 μM, 37° C.; read-out: Metabolic Stability (t1/2, min) Phase2
Procedure: Rat liver microsomes (0.5 mg/mL final conc.) were incubated in ice for 15 min in 50 mM potassium phosphate buffer pH 7.4, 3 mM MgCl2 and activated with Alamethicin 50 μg/mg microsomal protein. Samples were transferred at 37° C. and compounds 1, 2, 8 and 9, dissolved in DMSO, were added in duplicate at the final concentration of 1 μM. After 5 min, reaction is started by adding 25 μl of UDPGA (16.15 mg/ml in 0.2% Sodium Bicarbonate). Samples were taken at time 0, 10, 20, 30 and 60 min added to 150 μl of acetonitrile with Verapamil 0.02 uM as Internal Standard (IS) to stop the reaction. After centrifugation the supernatants were analysed by LC-MS/MS. 7-Hydroxycoumarin was added as reference standard.

[4] = Metabolic stability in rat microsomes, Phase I assay; format: in vitro ADME; details: pH 7.4; rat liver microsomes 0.5 mg/ml, compound 1 μM, NADP cofactors mixture, 37° C.; read-out: Metabolic Stability (t1/2, min) Phase1
Procedure: Compounds 1, 2, 8 and 9 in duplicate were dissolved in DMSO and pre-incubated, at the final concentration of 1 μM, for 10 min at 37° C. in potassium phosphate buffer 50 mM pH 7.4, 3 mM MgCl2, with rat liver microsomes (Xenotech) at the final concentration of 0.5 mg/ml.
After the pre-incubation period, reactions were started by adding the cofactors mixture (NADP, Glc6P, Glc6P-DH in 2% Sodium bicarbonte); samples (50 μl) were taken at time 0, 10, 20, 30 and 60 min added to 150 μl of acetonitrile with Verapamil 0.02 μM as Internal Standard (IS) to stop the reaction. After centrifugation the supernatants were analysed by LC-MS/MS.
A control sample without cofactors was added in order to check the stability of test compounds in the matrix after 60 min. 7-Ethoxycoumarin and propranolol were added as reference standards.

[5] = agonist Cooling Agent 10 at EC80, read-out: Ca2+ (IC50 μM) Cool 10
[6] = agonist Icilin at EC80, read-out: Ca2+ (IC50 μM) Icilin

T1 sequence (Q7Z2W7 whole entry): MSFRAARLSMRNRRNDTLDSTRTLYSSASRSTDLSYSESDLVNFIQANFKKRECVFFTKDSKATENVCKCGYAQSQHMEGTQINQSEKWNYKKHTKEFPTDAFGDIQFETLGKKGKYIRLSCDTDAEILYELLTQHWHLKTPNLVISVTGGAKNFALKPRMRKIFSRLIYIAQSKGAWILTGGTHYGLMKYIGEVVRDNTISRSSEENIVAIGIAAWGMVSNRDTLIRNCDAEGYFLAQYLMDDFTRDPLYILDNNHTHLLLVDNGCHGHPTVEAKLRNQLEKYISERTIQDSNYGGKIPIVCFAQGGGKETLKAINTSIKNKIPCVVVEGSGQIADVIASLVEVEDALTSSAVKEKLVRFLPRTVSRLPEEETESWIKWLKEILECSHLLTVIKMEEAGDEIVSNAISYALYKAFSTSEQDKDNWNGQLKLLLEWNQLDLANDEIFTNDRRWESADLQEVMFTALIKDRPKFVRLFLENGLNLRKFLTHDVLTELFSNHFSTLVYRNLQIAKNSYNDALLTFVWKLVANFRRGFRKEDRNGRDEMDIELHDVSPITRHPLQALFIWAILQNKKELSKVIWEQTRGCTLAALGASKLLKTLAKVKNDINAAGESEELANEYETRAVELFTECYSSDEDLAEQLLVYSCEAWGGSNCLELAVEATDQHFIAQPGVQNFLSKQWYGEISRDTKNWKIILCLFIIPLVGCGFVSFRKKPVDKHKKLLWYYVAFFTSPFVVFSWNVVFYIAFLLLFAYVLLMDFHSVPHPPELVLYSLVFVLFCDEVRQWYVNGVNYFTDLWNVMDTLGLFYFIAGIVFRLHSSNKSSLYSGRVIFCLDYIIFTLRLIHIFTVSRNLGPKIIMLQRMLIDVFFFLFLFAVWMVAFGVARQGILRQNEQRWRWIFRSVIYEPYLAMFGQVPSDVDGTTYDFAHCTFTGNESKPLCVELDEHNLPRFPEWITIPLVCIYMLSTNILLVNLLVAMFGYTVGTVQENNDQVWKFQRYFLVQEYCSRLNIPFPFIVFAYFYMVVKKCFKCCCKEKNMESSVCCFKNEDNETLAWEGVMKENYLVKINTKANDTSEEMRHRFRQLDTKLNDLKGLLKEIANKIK

Row | SMILES | IC50 [1, 5] [µM] | IC50 [1, 6] [µM] | IC50 [2] [µM] | half-life at 1 μM [3] [min] | half-life at 1 μM [4] [min]
1 | O=C(c1sc(-c2cccc(F)c2)nc1O)N1CCCCCO1 [Example 27, [2-(3-fluorophenyl)-4-hydroxy-1,3-thiazol-5-yl](1,2-oxazepan-2-yl)methanone] | 0.121 | 0.143 | 0.046 | 63 | 75
2 | O=C(c1sc(-c2cccc(F)c2)nc1O)N1CC2(CC2)CO1 [Example 28, [2-(3-fluorophenyl)-4-hydroxy-1,3-thiazol-5-yl](5-oxa-6-azaspiro[2.4]heptan-6-yl) methanone] | 0.086 | 0.143 | 0.054 | 61 | 73
3 | CC1CCN(C(=O)c2sc(-c3cccc(F)c3)nc2O)O1 (stereo not drawn) [Example 29, [2-(3-fluorophenyl)-4-hydroxy-1,3-thiazol-5-yl](5-methyl-1,2-oxazolidin-2-yl) methanone] | 0.091 | 0.111 | 0.031 | 78 | 91
4 | O=C(c1sc(-c2cccc(F)c2)nc1O)N1CC2CCCC2O1 (stereo not drawn) [Example 30, [2-(3-fluorophenyl)-4-hydroxy-1,3-thiazol-5-yl](hexahydro-2H-cyclopenta[d][1,2]oxazol-2-yl)methanone] | 0.084 | 0.087 | 0.069 | 85 | 82
5 | Cn1nnnc1C(=O)c1sc(-c2cccc(F)c2)nc1O [Example 32, [2-(3-fluorophenyl)-4-hydroxy-1,3-thiazol-5-yl](1-methyl-1H-tetrazol-5-yl)methanone] | 0.098 | 0.101 | 0.063 | 69 | 81

Second part, the molecule after the results:

Row | IC50 [1, 5] [µM] | IC50 [1, 6] [µM] | IC50 [2] [µM] | half-life at 1 μM [3] [min] | half-life at 1 μM [4] [min] | SMILES
6 | 0.601 | 0.624 | 0.525 | 48 | 40 | O=C(c1ccncc1)c1sc(-c2cccc(F)c2)nc1O [Example 24, [2-(3-fluorophenyl)-4-hydroxy-1,3-thiazol-5-yl](pyridin-4-yl)methanone]
7 | 1.25 | 1.25 | 0.972 | 40 | 45 | O=C(c1sc(-c2cccc(F)c2)nc1O)n1ccnc1 [Example 25, [2-(3-fluorophenyl)-4-hydroxy-1,3-thiazol-5-yl](1H-imidazol-1-yl)methanone]
8 | 1.65 | 1.32 | 1.32 | 86 | 89 | O=C(c1sc(-c2cccc(F)c2)nc1O)n1cccn1 [Example 26, [2-(3-fluorophenyl)-4-hydroxy-1,3-thiazol-5-yl](1H-pyrazol-1-yl)methanone]
9 | 0.94 | 0.082 | 0.05 | 67 | 85 | O=C(c1sc(-c2cccc(F)c2)nc1O)n1ccnn1 [Example 31, [2-(3-fluorophenyl)-4-hydroxy-1,3-thiazol-5-yl](1H-1,2,3-triazol-1-yl)methanone]
